Measurements taken from ChEMBL document CHEMBL1201862, “PubChem BioAssay data set” (2004).
The source made the active and inactive calls.

Assays:
Fibrinogen beta chain [1] = molecular target: T1, Fibrinogen beta chain (Homo sapiens, UniProt P02675); experiment: Fluorescence polarization-based biochemical high throughput dose response assay to identify inhibitors that disrupt the binding of a cyclic peptide (Tn6) to the fibrin proteolytic product D-Dimer and fragment E complex [DD(E )].
Fibrinogen beta chain [2] = molecular target: T1, Fibrinogen beta chain; experiment: Fluorescence polarization-based biochemical high throughput dose response assay to identify inhibitors that disrupt the binding of a cyclic peptide (Tn7) to the fibrin proteolytic product D-Dimer and fragment E complex [DD(E )].
Protein skinhead-1 = molecular target: T2, Protein skinhead-1 (Caenorhabditis elegans, UniProt P34707); format: functional
T2 sequence (P34707 whole entry): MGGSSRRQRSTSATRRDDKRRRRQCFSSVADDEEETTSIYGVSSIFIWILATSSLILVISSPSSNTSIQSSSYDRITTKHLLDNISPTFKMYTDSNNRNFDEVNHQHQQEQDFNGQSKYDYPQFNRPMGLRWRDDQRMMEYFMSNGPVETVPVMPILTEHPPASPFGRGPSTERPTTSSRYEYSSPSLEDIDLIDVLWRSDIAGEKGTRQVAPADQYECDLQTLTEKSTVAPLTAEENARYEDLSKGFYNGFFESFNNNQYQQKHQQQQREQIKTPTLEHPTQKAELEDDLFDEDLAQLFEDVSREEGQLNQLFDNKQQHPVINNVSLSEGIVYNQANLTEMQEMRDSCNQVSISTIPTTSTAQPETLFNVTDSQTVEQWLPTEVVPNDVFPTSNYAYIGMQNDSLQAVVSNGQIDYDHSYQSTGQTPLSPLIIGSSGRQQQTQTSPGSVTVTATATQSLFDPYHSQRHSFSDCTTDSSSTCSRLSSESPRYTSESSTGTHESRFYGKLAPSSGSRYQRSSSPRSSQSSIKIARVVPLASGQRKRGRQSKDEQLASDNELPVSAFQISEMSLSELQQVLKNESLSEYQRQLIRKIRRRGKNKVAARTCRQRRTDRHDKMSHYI

[3] = molecular target: Photoreceptor-specific nuclear receptor (Homo sapiens, UniProt Q9Y5X4); experiment: NR2E3 inverse agonists, dose response, biochemical, TR-FRET (AID 463256); format: functional
[4] = molecular target: T3, Small ubiquitin-related modifier 1 (Homo sapiens, UniProt P63165); experiment: inhibitors of SUMO1 partner interactions, dose response, biochemical, FRET (AID 624383); format: functional; details: read-out: IC50_Mean
T3 sequence (P63165 whole entry, the tested form may be a part): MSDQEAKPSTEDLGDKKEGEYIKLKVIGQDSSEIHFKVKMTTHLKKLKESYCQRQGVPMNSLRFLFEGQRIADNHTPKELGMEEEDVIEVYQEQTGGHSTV

[5] = molecular target: E3 ubiquitin-protein ligase UHRF1 (Homo sapiens, UniProt Q96T88); experiment: Counterscreen for inhibitors of 5-meCpG-binding domain protein 2 (MBD2): TRFRET-based biochemical high throughput dose response assay to identify inhibitors of binding of ubiquitin-like with PHD and ring finger domains 1 (UHRF1) to methylated oligonucleotide.
Chain of E3 ubiquitin-protein ligase UHRF1 (Q96T88 whole entry, the tested form may be a part): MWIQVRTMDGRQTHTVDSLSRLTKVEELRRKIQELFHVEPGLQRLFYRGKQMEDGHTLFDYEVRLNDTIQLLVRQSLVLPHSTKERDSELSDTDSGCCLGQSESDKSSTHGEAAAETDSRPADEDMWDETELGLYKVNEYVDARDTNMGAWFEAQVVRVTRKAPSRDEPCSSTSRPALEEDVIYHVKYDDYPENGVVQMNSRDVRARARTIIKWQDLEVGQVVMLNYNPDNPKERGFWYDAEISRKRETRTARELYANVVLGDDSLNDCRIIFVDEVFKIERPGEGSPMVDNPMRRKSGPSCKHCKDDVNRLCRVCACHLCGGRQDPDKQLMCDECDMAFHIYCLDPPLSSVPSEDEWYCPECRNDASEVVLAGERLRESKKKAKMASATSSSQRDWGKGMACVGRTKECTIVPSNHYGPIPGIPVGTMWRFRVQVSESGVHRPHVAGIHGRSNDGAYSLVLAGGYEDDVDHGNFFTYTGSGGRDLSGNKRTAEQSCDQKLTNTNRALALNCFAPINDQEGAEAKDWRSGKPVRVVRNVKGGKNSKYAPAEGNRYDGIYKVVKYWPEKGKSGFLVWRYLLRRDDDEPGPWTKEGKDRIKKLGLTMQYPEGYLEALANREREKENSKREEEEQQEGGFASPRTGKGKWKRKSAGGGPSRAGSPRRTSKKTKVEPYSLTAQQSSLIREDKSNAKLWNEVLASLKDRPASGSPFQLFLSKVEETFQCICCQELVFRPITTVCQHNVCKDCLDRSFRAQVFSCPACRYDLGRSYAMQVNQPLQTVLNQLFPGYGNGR

[6] = molecular target: T3, Small ubiquitin-related modifier 1; experiment: inhibitors of SUMO1 peptide binding, dose response, biochemical, fluorescence polarization, uHTS hits (AID 624382); format: functional; details: read-out: IC50_Mean
[7] = molecular target: Peroxisome proliferator-activated receptor gamma/Nuclear receptor corepressor 2 (Homo sapiens, UniProt P37231+Q9Y618); experiment: Counterscreen for NR2E3 inverse agonists: TR-FRET-based biochemical high throughput dose response assay to identify inverse agonists of the interaction between peroxisome proliferator-activated receptor gamma (PPARg) and nuclear receptor co-repressor 2 (NCOR2).; format: functional
Chain of Peroxisome proliferator-activated receptor gamma/Nuclear receptor corepressor 2 (P37231 whole entry): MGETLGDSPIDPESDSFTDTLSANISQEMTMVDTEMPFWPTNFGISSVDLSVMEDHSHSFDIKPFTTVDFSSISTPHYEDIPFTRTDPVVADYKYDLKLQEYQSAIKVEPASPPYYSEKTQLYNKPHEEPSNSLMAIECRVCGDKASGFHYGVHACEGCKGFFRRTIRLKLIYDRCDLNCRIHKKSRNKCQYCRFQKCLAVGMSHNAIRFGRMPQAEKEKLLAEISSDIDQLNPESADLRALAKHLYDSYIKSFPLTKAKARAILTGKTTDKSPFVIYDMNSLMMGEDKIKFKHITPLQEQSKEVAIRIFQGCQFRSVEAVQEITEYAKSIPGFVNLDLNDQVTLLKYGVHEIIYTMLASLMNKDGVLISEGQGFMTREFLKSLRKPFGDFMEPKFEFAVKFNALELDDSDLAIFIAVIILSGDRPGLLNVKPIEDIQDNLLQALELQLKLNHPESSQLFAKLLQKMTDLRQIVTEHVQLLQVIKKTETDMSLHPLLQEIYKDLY
Chain of Peroxisome proliferator-activated receptor gamma/Nuclear receptor corepressor 2 (Q9Y618 whole entry): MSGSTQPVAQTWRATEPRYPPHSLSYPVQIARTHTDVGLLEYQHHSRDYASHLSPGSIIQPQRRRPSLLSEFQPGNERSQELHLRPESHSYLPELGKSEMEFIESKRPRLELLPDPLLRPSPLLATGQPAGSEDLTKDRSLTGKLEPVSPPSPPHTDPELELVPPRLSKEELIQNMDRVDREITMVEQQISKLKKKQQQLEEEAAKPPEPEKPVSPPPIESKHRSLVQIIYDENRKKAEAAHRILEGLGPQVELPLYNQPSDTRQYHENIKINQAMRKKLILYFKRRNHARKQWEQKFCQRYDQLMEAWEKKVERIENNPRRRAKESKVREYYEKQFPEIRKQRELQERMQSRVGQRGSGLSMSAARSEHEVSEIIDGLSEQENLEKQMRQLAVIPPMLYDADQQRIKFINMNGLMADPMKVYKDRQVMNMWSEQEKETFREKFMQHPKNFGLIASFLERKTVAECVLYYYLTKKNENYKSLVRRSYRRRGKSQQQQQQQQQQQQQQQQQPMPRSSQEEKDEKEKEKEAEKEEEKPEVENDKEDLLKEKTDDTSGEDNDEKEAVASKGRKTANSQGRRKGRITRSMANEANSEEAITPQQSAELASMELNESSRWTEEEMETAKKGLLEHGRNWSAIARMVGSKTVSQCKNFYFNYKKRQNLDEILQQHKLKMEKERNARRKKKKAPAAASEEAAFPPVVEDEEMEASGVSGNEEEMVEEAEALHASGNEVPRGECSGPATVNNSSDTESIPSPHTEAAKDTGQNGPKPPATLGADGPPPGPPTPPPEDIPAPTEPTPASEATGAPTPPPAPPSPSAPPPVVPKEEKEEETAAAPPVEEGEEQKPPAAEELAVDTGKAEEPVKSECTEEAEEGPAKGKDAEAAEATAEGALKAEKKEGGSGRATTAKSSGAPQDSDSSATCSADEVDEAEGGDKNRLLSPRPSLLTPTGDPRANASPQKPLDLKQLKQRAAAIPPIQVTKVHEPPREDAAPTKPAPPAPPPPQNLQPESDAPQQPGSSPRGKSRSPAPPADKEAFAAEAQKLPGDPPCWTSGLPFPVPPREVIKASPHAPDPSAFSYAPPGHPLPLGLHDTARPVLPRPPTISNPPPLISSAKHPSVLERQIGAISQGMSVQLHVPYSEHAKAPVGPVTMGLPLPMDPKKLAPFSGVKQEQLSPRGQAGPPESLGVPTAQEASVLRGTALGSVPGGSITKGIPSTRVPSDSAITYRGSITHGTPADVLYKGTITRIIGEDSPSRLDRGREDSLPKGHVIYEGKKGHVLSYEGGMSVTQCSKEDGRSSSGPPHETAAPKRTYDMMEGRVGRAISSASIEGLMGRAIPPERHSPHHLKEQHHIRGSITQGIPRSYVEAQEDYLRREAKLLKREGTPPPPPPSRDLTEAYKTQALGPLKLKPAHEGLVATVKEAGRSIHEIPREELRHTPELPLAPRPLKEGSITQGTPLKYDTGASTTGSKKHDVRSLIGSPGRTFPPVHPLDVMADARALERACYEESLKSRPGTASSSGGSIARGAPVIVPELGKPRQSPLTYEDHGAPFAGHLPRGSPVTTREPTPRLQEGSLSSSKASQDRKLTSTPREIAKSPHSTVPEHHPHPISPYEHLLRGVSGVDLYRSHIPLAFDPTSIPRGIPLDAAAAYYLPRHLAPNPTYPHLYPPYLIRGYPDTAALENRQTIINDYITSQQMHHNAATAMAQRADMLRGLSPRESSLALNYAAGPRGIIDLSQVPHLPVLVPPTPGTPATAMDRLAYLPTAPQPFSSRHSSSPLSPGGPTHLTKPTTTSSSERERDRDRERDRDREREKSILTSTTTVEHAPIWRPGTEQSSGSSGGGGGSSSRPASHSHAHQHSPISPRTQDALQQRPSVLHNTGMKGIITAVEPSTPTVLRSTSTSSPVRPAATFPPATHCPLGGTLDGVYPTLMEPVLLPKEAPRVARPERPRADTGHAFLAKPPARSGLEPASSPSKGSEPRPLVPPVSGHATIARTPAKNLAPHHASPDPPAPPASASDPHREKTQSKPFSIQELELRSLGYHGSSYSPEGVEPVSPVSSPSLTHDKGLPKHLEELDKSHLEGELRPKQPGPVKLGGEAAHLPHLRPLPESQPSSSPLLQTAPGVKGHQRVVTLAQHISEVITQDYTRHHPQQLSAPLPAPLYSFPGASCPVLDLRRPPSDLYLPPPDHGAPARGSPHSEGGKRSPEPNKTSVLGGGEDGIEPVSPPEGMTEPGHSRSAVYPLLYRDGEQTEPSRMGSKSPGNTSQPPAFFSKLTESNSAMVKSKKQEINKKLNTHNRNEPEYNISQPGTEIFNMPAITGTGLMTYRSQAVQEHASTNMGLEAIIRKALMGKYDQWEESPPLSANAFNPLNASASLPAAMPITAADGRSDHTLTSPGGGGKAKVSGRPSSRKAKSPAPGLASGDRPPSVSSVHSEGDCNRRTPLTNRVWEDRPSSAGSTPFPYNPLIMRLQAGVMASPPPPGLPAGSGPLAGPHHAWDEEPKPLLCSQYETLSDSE

[8] = molecular target: Luciferin 4-monooxygenase (Photinus pyralis, UniProt P08659); experiment: Counter Screen for Luciferase-based Assay Positives. [Related pubchem assays: 620, 618, 411 ]
Chain of Luciferin 4-monooxygenase (P08659 whole entry, the tested form may be a part): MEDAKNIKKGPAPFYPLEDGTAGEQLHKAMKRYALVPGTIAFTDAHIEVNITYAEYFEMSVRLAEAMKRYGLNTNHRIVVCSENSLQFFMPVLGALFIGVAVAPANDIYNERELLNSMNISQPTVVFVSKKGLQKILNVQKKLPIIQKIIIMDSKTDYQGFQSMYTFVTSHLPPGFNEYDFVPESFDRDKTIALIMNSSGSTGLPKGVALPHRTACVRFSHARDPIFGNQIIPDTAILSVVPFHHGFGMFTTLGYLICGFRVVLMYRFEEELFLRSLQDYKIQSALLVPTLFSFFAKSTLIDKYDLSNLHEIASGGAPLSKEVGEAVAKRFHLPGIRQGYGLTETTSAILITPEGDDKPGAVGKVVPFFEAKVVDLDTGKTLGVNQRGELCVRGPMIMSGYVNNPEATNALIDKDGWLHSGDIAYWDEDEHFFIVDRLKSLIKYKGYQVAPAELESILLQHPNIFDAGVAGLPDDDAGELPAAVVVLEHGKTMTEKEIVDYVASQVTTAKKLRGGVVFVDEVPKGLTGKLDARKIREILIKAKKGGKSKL

[9] = molecular target: T4, Oxysterols receptor LXR-beta (Homo sapiens, UniProt P55055); format: functional, cell-based;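 further: Cell-based luminescence dose-response assay of agonist activity at LXR, run as a confirmatory counterscreen to a daf-12 agonist screen; agonist potency from rising luciferase signal of a Gal4-LXR reporter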
T4 sequence (P55055 whole entry): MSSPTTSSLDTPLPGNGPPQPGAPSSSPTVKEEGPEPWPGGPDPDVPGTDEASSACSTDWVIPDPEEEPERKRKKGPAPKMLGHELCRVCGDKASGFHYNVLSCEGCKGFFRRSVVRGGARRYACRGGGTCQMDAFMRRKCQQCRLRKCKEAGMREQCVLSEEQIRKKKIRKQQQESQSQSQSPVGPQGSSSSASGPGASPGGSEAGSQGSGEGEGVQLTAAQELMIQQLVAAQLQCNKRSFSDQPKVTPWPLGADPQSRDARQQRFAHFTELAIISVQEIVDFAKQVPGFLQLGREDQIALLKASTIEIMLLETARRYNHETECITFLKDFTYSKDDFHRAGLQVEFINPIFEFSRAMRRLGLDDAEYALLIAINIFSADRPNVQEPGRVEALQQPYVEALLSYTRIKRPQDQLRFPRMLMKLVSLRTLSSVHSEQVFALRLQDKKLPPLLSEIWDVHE

[10] = Luminescence-based cell-based high throughput dose response assay to identify activators of the DAF-12 from the parasite S. stercoralis (ssDAF-12).; format: functional
[11] = molecular target: T4, Oxysterols receptor LXR-beta; experiment: LXR agonists, Gal4 luciferase reporter, dose response, counter-screen for ssDAF-12 agonist project, cell-based, luminescence, HEK293, S. stercoralis campaign (AID 720737); format: functional; details: read-out: IC50 (the source's name)
HT-1080 = experiment: cytotoxicity in HT1080 fibrosarcoma cells, cell-based, fluorescence readout (AID 620); format: functional; details: Homo sapiens
[12] = P. falciparum ATP4 D1247Y mutant growth inhibitors, dose response, NITD609-resistant line, SYBR Green, dry powder (AID 1159571); format: functional, cell-based;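 further: parasites synchronized at ring stage by sorbitol before testing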
[13] = cytotoxicity in OVCAR4 cells, dose response, cytotoxicity control for PAX8 inhibitor project, cell-based, plate reader, dry powder, SA11 (AID 743150); format: functional; details: OVCAR-4
[14] = cytotoxicity in COV362 ovarian cancer cells, dose response, cytotoxicity control for PAX8 inhibitor project, cell-based, plate reader, dry powder, SA12 (AID 743144); format: functional
[15] = P. falciparum 3D7-ScDHODH growth inhibitors, dose response, SYBR Green, dry powder samples (AID 1159570); format: functional, cell-based;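 further: parasite growth measured after 72 hours of compound exposure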
[16] = NIH:OVCAR-3 ovarian cancer cell cytotoxicity, dose response, PAX8 inhibitor project, plate reader, dry powder samples (AID 743044); format: functional, cell-based
Paired box protein Pax-8 = Paired box protein Pax-8 (Homo sapiens, UniProt Q06710); experiment: inhibitors of PAX8-driven TPO luciferase reporter, dose response, RMG-I cells, cherry-pick (AID 687027); format: functional, cell-based;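 further: luciferase reporter driven by Pax8 target thyroperoxidase promoter measured by SteadyGlo luminescence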
[17] = PAX2 cell-based inhibition, dose response, selectivity assay for PAX8 inhibitor project, plate reader, dry powder samples (AID 743048); format: functional;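 further: HEK293 cells carrying a WT1 promoter luciferase reporter driven by expressed Pax2; potency is for inhibition of Pax2 driven reporter signal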
[18] = P. falciparum Dd2 growth inhibitors, dose response, SYBR Green, cherry-picked samples (AID 1159567); format: functional, cell-based
[19] = cytotoxicity in OV-90 ovarian cancer cells, dose response, PAX8 inhibitor project, cell-based, plate reader, dry powder, SA8 (AID 743149); format: functional
[20] = HepG2 cell cytotoxicity, dose response, cytotoxicity control, cherry-picked samples (AID 1159577); format: functional, cell-based
[21] = PAX5 activity inhibitors, dose response, selectivity assay for PAX8 inhibitor project, cell-based, plate reader, dry powder samples (AID 743047); format: functional;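 further: HEK293 cells carrying a Pax5 driven CD19 promoter luciferase reporter; potency of inhibitors that lower reporter luminescence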
[22] = P. falciparum Dd2 growth inhibitors, dose response, SYBR Green, dry powder samples (AID 1159566); format: functional, cell-based;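 further: potency for growth inhibition with lower SYBR green DNA signal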
[23] = cytotoxicity in COV434 cells, dose response, cytotoxicity control for PAX8 inhibitor project, cell-based, plate reader, dry powder, SA7 (AID 743145); format: functional
[24] = cytotoxicity dependent on PAX8, dose response, cell-based, plate reader, dry powder (AID 743049); format: functional
[25] = molecular target: NAD-dependent protein deacylase sirtuin-5, mitochondrial (Homo sapiens, UniProt Q9NXA8); experiment: SIRT5 deacylase inhibitors, dose response, biochemical, fluorescence imaging, cherry-pick, set 6 (AID 720597)
[26] = inhibitors of non-replicating M. tuberculosis, dose response, luciferase, dry powder (AID 651619); format: functional; details: Mycobacterium tuberculosis
[27] = inhibitors of non-replicating M. tuberculosis, dose response, luciferase, dry powder (AID 651620); format: functional; details: Mycobacterium tuberculosis
[28] = cytotoxicity in HeLa cells, dose response, cytotoxicity control, cell-based, plate reader, dry powder (AID 651946); format: functional
[29] = HEK293T cell cytotoxicity, dose response, cytotoxicity control, CellTiter-Glo luminescence, dry powder, set 6 (AID 651949); format: functional, cell-based; details: HEK293

T1 sequence (P02675 whole entry, the tested form may be a part): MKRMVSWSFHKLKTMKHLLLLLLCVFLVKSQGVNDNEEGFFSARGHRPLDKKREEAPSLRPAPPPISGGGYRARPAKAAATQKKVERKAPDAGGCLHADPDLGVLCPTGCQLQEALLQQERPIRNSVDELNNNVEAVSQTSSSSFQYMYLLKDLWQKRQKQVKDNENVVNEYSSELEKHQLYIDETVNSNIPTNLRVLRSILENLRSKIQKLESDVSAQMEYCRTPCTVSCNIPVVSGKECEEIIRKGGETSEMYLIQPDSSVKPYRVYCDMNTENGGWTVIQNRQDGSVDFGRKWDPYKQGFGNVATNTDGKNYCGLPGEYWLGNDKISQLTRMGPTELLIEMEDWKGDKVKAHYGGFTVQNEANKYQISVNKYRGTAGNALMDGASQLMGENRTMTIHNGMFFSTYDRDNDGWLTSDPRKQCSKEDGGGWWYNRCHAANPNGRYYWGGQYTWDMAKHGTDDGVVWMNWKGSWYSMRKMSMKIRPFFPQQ

c1ccc2c(c1)CCN(C1=Nc3cccc4cccc1c34)C2
inactive: IC50 (Fibrinogen beta chain [1]) 46.1 µM | IC50 (Fibrinogen beta chain [2]) > 83.3 µM | IC50 (Protein skinhead-1) > 100 µM

N#CCC(=O)Nc1ccc(C(=O)OCC(=O)c2ccc3c(c2)NC(=O)CO3)cc1
active: IC50 [3] 4.46 µM | IC50 [4] 10.1 µM | IC50 [7] 4.39 µM
inactive: IC50 [5] > 43.8 µM | IC50 [6] > 66.6 µM

O=C1c2ccccc2C(=O)C1c1nccc2ccccc12
active: EC50 [8] 1.3 µM
inactive: EC50 [9] > 67.5 µM | IC50 [10] > 67.5 µM | EC50 [11] > 67.5 µM | EC50 (cells) > 67.5 µM
> 50 µM (not active): EC50 (HT-1080)

N#C[C@H]1[C@@H](c2ccc(C#Cc3ccccc3F)cc2)[C@@H](CO)N1C(=O)C1CCCCC1
active: AC50 [12] 1.23 µM | AC50 [13] 3.01 µM | AC50 [14] 36.2 µM | AC50 [15] 0.8 µM | AC50 [16] 16.1 µM | AC50 (Paired box protein Pax-8) 3.09 µM | AC50 [17] 14.2 µM | AC50 [18] 1.09 µM | AC50 [19] 27.7 µM | AC50 [21] 13 µM | AC50 [22] 0.584 µM | AC50 [23] 20.3 µM | AC50 [24] 7.86 µM
inactive: AC50 [20] > 39 µM

C[C@H](CO)N1C[C@H](C)[C@H](CN(C)C(=O)Cc2ccccc2)Oc2ncc(C3=CCCCC3)cc2C1=O
inactive: AC50 [25] > 30 µM

Fc1ccc(Cn2cc(CSc3nnc(-c4ccc(Cl)cc4)o3)nn2)cc1
inactive: AC50 [28] > 52 µM | AC50 [29] > 52 µM
active: IC90 [26] 1 µM | IC90 [27] 1 µM
